The Dmax is the greatest extent of degradation seen. Higher therefore signals a fuller loss of target.

The text below walks through data of patent US11897862B2 (Gilead Sciences, Inc., priority 2022, dated 2024).

Test [1] addresses T1, IKZF1 (Homo sapiens, UniProt Q13422+Q96SW2).
T1 construct: expressed in transfected cells
The test can be described thus: HEK293 HiBiT in vitro degradation of IKZF1. It counts as cell-based. To be noted: for Dmax: HEK293, HEK293 HiBiT, maximum degradation at the highest concentration tested; for DC50: HEK293 HiBiT, 18-24 hr incubation, normalized to DMSO control, read-out: IKZF1 EC50. In outline: (§1)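 Stable HEK293 reporter pools, each with one integrated tet-inducible copy of a HiBiT-tagged target, were induced with doxycycline overnight at 37 °C. After 18-24 h with compound dilution series, Nano-Glo lysis and luminescence yielded EC50 and Dmax values.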
(With HiBiT, luminescence reflects the tagged protein that the partner subunit can reach.)

In test [2] the target is IKZF2 (Homo sapiens, UniProt Q96SW2+Q9UKS7). The test is described as follows: HEK293 HiBiT in vitro degradation of IKZF2. Format: cell-based. On the set-up: expressed in transfected cells. To be noted: for Dmax: HEK293, HEK293 HiBiT, maximum degradation at the highest concentration tested; for DC50: HEK293 HiBiT, 18-24 hr incubation, normalized to DMSO control, read-out: IKZF2 EC50. In outline:
as §1

T1 sequence (Q13422 whole entry): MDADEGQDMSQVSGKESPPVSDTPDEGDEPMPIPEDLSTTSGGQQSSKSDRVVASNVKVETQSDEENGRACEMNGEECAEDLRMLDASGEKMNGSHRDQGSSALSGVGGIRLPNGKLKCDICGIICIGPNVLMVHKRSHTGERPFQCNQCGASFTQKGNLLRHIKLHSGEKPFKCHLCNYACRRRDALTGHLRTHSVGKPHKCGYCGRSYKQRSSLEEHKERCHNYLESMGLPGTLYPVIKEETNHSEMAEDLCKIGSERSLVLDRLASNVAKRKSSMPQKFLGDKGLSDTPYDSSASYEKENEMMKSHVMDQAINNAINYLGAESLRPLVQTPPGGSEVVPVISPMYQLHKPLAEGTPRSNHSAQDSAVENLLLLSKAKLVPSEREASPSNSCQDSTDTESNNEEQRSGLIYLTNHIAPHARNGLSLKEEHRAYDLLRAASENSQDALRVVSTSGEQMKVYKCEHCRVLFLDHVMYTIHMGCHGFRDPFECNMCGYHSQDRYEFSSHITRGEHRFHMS
T1 sequence (Q96SW2 whole entry): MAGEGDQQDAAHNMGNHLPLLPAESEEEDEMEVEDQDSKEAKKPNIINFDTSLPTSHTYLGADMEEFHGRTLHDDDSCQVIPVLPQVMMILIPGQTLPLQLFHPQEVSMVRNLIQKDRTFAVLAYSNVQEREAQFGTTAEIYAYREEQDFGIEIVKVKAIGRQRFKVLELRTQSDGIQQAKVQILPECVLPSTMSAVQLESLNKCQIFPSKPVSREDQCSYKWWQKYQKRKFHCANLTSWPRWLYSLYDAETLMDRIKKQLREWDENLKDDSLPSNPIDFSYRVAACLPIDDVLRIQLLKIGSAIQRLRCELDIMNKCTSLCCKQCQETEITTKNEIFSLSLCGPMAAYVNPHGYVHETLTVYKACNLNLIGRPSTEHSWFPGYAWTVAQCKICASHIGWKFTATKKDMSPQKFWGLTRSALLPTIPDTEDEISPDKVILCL
T1 sequence (Q16531 whole entry partner): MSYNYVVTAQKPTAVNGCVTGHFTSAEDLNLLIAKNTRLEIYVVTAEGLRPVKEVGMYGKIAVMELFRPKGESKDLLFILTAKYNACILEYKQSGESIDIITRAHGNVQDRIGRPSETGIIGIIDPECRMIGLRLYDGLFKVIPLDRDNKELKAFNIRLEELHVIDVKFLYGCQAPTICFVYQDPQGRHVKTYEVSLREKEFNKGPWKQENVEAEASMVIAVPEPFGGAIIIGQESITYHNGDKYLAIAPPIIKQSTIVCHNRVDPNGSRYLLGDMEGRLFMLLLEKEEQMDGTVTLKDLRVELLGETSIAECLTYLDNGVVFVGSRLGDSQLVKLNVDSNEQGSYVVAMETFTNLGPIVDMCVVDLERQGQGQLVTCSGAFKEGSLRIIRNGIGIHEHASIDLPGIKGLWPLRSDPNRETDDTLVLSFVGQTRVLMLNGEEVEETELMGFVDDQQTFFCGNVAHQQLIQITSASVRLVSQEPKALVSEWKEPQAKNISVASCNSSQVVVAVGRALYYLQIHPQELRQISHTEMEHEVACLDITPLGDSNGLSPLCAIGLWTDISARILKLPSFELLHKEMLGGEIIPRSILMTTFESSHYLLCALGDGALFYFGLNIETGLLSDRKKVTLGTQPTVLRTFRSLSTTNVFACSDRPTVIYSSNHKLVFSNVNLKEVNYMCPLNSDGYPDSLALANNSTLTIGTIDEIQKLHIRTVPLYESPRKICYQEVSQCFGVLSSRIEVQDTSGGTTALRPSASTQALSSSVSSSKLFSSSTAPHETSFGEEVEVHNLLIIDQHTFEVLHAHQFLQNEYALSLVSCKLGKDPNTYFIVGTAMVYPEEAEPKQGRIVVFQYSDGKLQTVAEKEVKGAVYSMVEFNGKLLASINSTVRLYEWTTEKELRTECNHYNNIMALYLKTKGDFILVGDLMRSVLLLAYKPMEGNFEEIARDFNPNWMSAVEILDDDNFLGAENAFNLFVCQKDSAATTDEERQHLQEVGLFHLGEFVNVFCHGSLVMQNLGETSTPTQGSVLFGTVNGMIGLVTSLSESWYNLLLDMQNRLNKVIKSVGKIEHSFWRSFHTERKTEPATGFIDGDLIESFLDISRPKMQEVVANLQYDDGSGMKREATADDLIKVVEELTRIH
IKZF2, sequence (Q9UKS7 1-500 isoform Q9UKS7-2): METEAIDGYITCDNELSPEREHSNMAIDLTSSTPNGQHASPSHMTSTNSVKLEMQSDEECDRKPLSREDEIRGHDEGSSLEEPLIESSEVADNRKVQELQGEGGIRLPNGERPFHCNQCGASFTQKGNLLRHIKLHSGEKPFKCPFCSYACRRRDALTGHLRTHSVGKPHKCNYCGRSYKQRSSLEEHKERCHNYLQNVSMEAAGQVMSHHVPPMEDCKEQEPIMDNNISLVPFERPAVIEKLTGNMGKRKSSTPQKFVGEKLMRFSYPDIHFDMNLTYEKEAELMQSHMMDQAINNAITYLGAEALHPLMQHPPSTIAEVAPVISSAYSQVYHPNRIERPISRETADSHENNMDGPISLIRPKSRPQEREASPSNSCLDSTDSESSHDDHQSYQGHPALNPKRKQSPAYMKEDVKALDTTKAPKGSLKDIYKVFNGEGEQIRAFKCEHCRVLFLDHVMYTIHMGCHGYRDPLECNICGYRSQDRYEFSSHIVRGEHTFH
IKZF2, sequence (Q96SW2 whole entry): as the sequence (Q96SW2 whole entry) above
IKZF2, sequence (Q16531 whole entry partner): as the sequence (Q16531 whole entry partner) above

Consider `O=C1CCC(N2Cc3cc(C[C@H]4CCCC[C@@H]4NCc4cncs4)ccc3C2=O)C(=O)N1` (stereo partly drawn) [Example 6, 3-(1-oxo-5-(((1R,2S)-2-((thiazol-5-ylmethyl)amino)cyclohexyl)methyl)isoindolin-2-yl)piperidine-2,6-dione], for which the greatest degradation seen (Dmax) amounted to 32% in test [1] and 90% in test [2]. The figures for the DC50 in test [1] and in test [2] were 122 nM and 30 nM, respectively.

In the case of `O=C1CCC(N2Cc3cc(C[C@H]4CCCC[C@@H]4NCC4CC4)ccc3C2=O)C(=O)N1` (stereo partly drawn) [Example 8, 3-(5-(((1R,2S)-2-((cyclopropylmethyl)amino)cyclohexyl)methyl)-1-oxoisoindolin-2-yl)piperidine-2,6-dione], in test [1], the maximal degradation (Dmax) came to 34% and the DC50 was determined as 229 nM. For the same compound, in test [2], the Dmax was 94% and the DC50 came out at 47 nM.

For the compound `O=C1CCC(N2Cc3cc(C[C@H]4CCCC[C@@H]4NCc4ccc5ccccc5c4)ccc3C2=O)C(=O)N1` (stereo partly drawn) [Example 9, 3-(5-(((1R,2S)-2-((naphthalen-2-ylmethyl)amino)cyclohexyl)methyl)-1-oxoisoindolin-2-yl)piperidine-2,6-dione], the DC50 in test [1] was greater than 1000 nM. Besides, in test [2], the maximal degradation (Dmax) came out at 92% and the DC50 amounted to 19 nM.

For the compound `O=C1CCC(N2Cc3cc(C[C@H]4CCCC[C@@H]4NCC4CCC(F)(F)CC4)ccc3C2=O)C(=O)N1` (stereo partly drawn) [Example 10, 3-(5-(((1R,2S)-2-(((4,4-difluorocyclohexyl)methyl)amino)cyclohexyl)methyl)-1-oxoisoindolin-2-yl)piperidine-2,6-dione], in test [1], the greatest degradation seen (Dmax) came to 46% and the DC50 was 388 nM. Further, in test [2], the greatest degradation seen (Dmax) was 96% and the DC50 amounted to 13 nM.

As for `O=C1CCC(N2Cc3c(ccc(C[C@H]4CCCC[C@@H]4NCc4ccccc4)c3F)C2=O)C(=O)N1` (stereo partly drawn) [Example 11, 3-(5-(((1R,2S)-2-(benzylamino)cyclohexyl)methyl)-4-fluoro-1-oxoisoindolin-2-yl)piperidine-2,6-dione], the DC50 in test [1] was greater than 1000 nM. In addition, in test [2], the maximal degradation (Dmax) was 98% and the DC50 is 7 nM.

For `CS(=O)(=O)c1ccc(CN[C@H]2CCCC[C@@H]2Cc2ccc3c(c2)CN(C2CCC(=O)NC2=O)C3=O)cc1` (stereo partly drawn) [Example 12, 3-(5-(((1R,2S)-2-((4-(methylsulfonyl)benzyl)amino)cyclohexyl)methyl)-1-oxoisoindolin-2-yl)piperidine-2,6-dione], the DC50 in test [1] is greater than 1000 nM. In test [2], the Dmax is 85% and the DC50 stood at 106 nM.

With `O=C1CCC(N2Cc3cc(C[C@H]4CCCC[C@@H]4NCc4cc(Cl)cc(Cl)c4)ccc3C2=O)C(=O)N1` (stereo partly drawn) [Example 13, 3-(5-(((1R,2S)-2-((3,5-dichlorobenzyl)amino)cyclohexyl)methyl)-1-oxoisoindolin-2-yl)piperidine-2,6-dione], the DC50 is greater than 1000 nM in test [1] and 79 nM in test [2]. The same compound gave a maximal degradation (Dmax) in test [2] of 68%.

Regarding `COc1ccc(CN[C@H]2CCCC[C@@H]2Cc2ccc3c(c2)CN(C2CCC(=O)NC2=O)C3=O)cc1` (stereo partly drawn) [Example 14, 3-(5-(((1R,2S)-2-((4-methoxybenzyl)amino)cyclohexyl)methyl)-1-oxoisoindolin-2-yl)piperidine-2,6-dione], the DC50 in test [1] was greater than 1000 nM; in test [2], 27 nM. In addition, in test [2], the maximal degradation (Dmax) came to 88%.

As to `O=C1CCC(N2Cc3cc(C[C@H]4CCCC[C@@H]4NCc4cc(F)cc(F)c4)ccc3C2=O)C(=O)N1` (stereo partly drawn) [Example 15, 3-(5-(((1R,2S)-2-((3,5-difluorobenzyl)amino)cyclohexyl)methyl)-1-oxoisoindolin-2-yl)piperidine-2,6-dione], the figures for the DC50 in test [1] and in test [2] were greater than 1000 nM and 20 nM, respectively. For the same compound, the greatest degradation seen (Dmax) in test [2] amounted to 95%.

Take `O=C1CCC(N2Cc3cc(C[C@H]4CCCC[C@@H]4NCc4ccc(C(F)(F)F)cc4)ccc3C2=O)C(=O)N1` (stereo partly drawn) [Example 16, 3-(1-oxo-5-(((1R,2S)-2-((4-(trifluoromethyl)benzyl)amino)cyclohexyl)methyl)isoindolin-2-yl)piperidine-2,6-dione]: in test [1], the DC50 was greater than 1000 nM. For the same compound, in test [2], the greatest degradation seen (Dmax) stood at 87% and the DC50 was found to be 42 nM.
